# Measured values reported in patent US9376418B2, “Substituted pyridine spleen tyrosine kinase (SYK) inhibitors” (Merck Sharp & Dohme Corp., priority 2012, dated 2016).
# Target: T1, recombinant human GST-SYK (Homo sapiens, UniProt P43405)
# T1 construct: purchased Carna Biosciences 08-176
# Assay: Homogeneous Time-Resolved Fluorescence (HTRF) assay for the recombinant human Syk enzyme
# Assay type: biochemical
# Settings: HTRF assay, recombinant human GST-SYK; IC50 given as class symbols; read-out: rhSYK Activity
# How it was run: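 Phosphorylation of a biotinylated Syk substrate peptide (250 nM) was run for 45 min at room temperature with 25 μM ATP and 5 mM Mg. It followed a 10-min preincubation of GST-hSYK ([…]) with compound in 15 mM Tris-HCl pH 7.5, 2 mM DTT. Product was detected by time-resolved fluorescence using a europium anti-phosphotyrosine antibody plus SA-APC in EDTA-containing quench buffer.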
row,IC50 [nM],Structure (SMILES)
1,< 100,"COC(=O)CS(=O)(=O)Nc1ccc(-c2cc(C)cc(Nc3nccc(C(F)(F)F)n3)c2)cn1 [Example 8.1, Methyl {[5-(3-methyl-5-{[4-(trifluoromethyl)pyrimidin-2-yl]amino}phenyl)pyridin-2-yl]sulfamoyl}acetate]"
2,< 100,"Cc1cc(Nc2nccc(C(F)(F)F)n2)cc(-c2ccc(NS(=O)(=O)CC(=O)O)nc2)c1 [Example 8.2, {[5-(3-Methyl-5-{[4-(trifluoromethyl)pyrimidin-2-yl]amino}phenyl)pyridin-2-yl]sulfamoyl}acetic acid]"
3,< 100,"COC(=O)CC(=O)Nc1ccc(-c2cc(C)cc(Nc3nccc(C(F)(F)F)n3)c2)cn1 [Example 8.3, methyl 3-{[5-(3-methyl-5-{[4-(trifluoromethyl)pyrimidin-2-yl]amino}phenyl)pyridin-2-yl]amino}-3-oxopropanoate]"
4,< 100,"Cc1cc(Nc2nccc(C(F)(F)F)n2)cc(-c2ccc(NC(=O)CC(=O)O)nc2)c1 [Example 8.4, 3-{[5-(3-methyl-5-{[4-(trifluoromethyl)pyrimidin-2-yl]amino}phenyl)pyridin-2-yl]amino}-3-oxopropanoic acid]"
5,< 100,"Cc1cc(Nc2nccc(C(F)(F)F)n2)cc(-c2ccc(C(C)(O)CO)nc2)c1 (stereo not shown) [Example 9.1, 2-[5-(3-Methyl-5-{[4-(trifluoromethyl)pyrimidin-2-yl]amino}phenyl)pyridin-2-yl]propane-1,2-diol]"
6,< 100,"Cc1cc(Nc2nccc(C(F)(F)F)n2)cc(-c2ccnc(C3(O)CCC(=O)CC3)c2)c1 [Example 9.2, 4-Hydroxy-4-[4-(3-methyl-5-{[4-(trifluoromethyl)pyrimidin-2-yl]amino}phenyl)pyridin-2-yl]cyclohexanone]"
7,< 100,"Cc1cc(Nc2nccc(C(F)(F)F)n2)cc(-c2ccnc([C@]3(O)CC[C@@H](O)CC3)c2)c1 [Example 9.3, Cis-1-[4-(3-methyl-5-{[4-(trifluoromethyl)pyrimidin-2-yl]amino}phenyl)pyridine-2-yl]cyclohexane-1,4-diol]"
8,< 100,"Cc1cc(Nc2nccc(C(F)(F)F)n2)cc(-c2cncc(C3(O)CCC(C(=O)O)C3)c2)c1 (stereo not shown) [Example 9.5, 3-Hydroxy-3-[5-(3-methyl-5-{[4-(trifluoromethyl)pyrimidin-2-yl]amino}phenyl)pyridin-3-yl]cyclopentanecarboxylic acid]"
9,< 100,"Cc1cc(Nc2nccc(C3CC3)n2)cc(-c2ccc(C(C)(O)[C@H]3CC[C@H](C(=O)O)CC3)nc2)c1 (stereo partly drawn) [Example 9.6, trans-4-(1-(5-(3-(4-cyclopropylpyrimidin-2-ylamino)-5-methylphenyl)pyridin-2-yl)-1-hydroxyethyl)cyclohexanecarboxylic acid]"
10,< 100,"Cc1cc(Nc2nccc(C(F)(F)F)n2)cc(-c2cncc(C3(O)CCNCC3)c2)c1 [Example 9.7, 4-[5-(3-Methyl-5-{[4-(trifluoromethyl)pyrimidin-2-yl]amino}phenyl)pyridin-3-yl]piperidin-4-ol]"
11,< 100,"Cc1cc(Nc2nccc(C(F)(F)F)n2)cc(-c2ccc([C@]3(O)CC[C@@](C)(C(=O)O)CC3)nc2)c1 [Example 9.11, cis-4-hydroxy-1-methyl-4-[5-(3-methyl-5-{[4-(trifluoromethyl)pyrimidin-2-yl]amino}phenyl)pyridin-2-yl]cyclohexanecarboxylic acid]"
12,< 100,"CC1(C(=O)O)CCC(O)(c2ccc(-c3cc(Nc4nccc(C(F)(F)F)n4)cc(C(F)F)c3)cn2)CC1 (stereo not drawn) [Example 9.12, cis-4-{5-[3-(difluoromethyl)-5-{[4-(trifluoromethyl)pyrimidin-2-yl]amino}phenyl]pyridin-2-yl}-4-hydroxy-1-methylcyclohexanecarboxylic acid]"
13,< 100,"Cc1cc(Nc2nccc(C(F)(F)F)n2)cc(-c2ccc(C(C)(O)c3ccc(C(=O)O)cc3)nc2)c1 (stereo not shown) [Example 9.20, 4-{1-hydroxy-1-[5-(3-methyl-5-{[4-(trifluoromethyl)pyrimidin-2-yl]amino}phenyl)pyridin-2-yl]ethyl}benzoic acid]"
14,< 100,"Cc1cc(Nc2nccc(C(F)(F)F)n2)cc(-c2ccc(C3(O)CCCC(C(=O)O)C3)nc2)c1 (stereo not shown) [Example 9.21, 3-hydroxy-3-[5-(3-methyl-5-{[4-(trifluoromethyl)pyrimidin-2-yl]amino}phenyl)pyridin-2-yl]cyclohexanecarboxylic acid]"
15,< 100,"Cc1cc(Nc2nccc(C(F)(F)F)n2)cc(-c2ccc(C3(O)CCC(C(=O)O)C3(C)C)nc2)c1 (stereo not shown) [Example 9.22, 3-hydroxy-2,2-dimethyl-3-[5-(3-methyl-5-{[4-(trifluoromethyl)pyrimidin-2-yl]amino}phenyl)pyridin-2-yl]cyclopentanecarboxylic acid]"

# Second part, the compound before the results:
row,Structure (SMILES),IC50 [nM]
1,Cc1cc(Nc2ncc(Br)c(C(F)(F)F)n2)cc(-c2ccc(NC(C)(C)C(=O)O)nc2)c1 [Example 7.152],< 100
2,"Cc1cc(Nc2nccc(C(F)(F)F)n2)cc(-c2ccc(N(C)CC(N)=O)nc2)c1 [Example 7.153, N~2~-methyl-N~2~-[5-(3-methyl-5-{[4-(trifluoromethyl)pyrimidin-2-yl]amino}phenyl)pyridin-2-yl]glycinamide]",< 100
3,"Cc1cc(Nc2nccc(C(F)(F)F)n2)cc(-c2ccc(N[C@H](C)C(=O)O)nc2)c1 [Example 7.154, N-[5-(3-methyl-5-{[4-(trifluoromethyl)pyrimidin-2-yl]amino}phenyl)pyridin-2-yl]-D-alanine]",< 100
4,"Cc1cc(Nc2nccc(C(F)(F)F)n2)cc(-c2ccc(N[C@@H](Cc3ccccc3)C(=O)O)nc2)c1 [Example 7.155, N-[5-(3-methyl-5-{[4-(trifluoromethyl)pyrimidin-2-yl]amino}phenyl)pyridin-2-yl]-L-phenylalanine]",< 100
5,"Cc1cc(Nc2nccc(C(F)(F)F)n2)cc(-c2ccc(NC3CCNC3=O)nc2)c1 (stereo not shown) [Example 7.157, 3-{[5-(3-methyl-5-{[4-(trifluoromethyl)pyrimidin-2-yl]amino}phenyl)pyridin-2-yl]amino}pyrrolidin-2-one]",< 100
6,"Cc1cc(Nc2ncc(F)c(C3CC3)n2)cc(-c2ccc(NC3CCNC3=O)nc2)c1 (stereo not shown) [Example 7.158, 3-[(5-{3-[(4-cyclopropyl-5-fluoropyrimidin-2-yl)amino]-5-methylphenyl}pyridin-2-yl)amino]pyrrolidin-2-one]",< 100
7,"Cc1cc(Nc2ncc(F)c(C3CC3)n2)cc(-c2ccc(NC(C)(C)C(=O)O)nc2)c1 [Example 7.159, N-(5-{3-[(4-cyclopropyl-5-fluoropyrimidin-2-yl)amino]-5-methylphenyl}pyridin-2-yl)-2-methylalanine]",< 100
8,"O=C(O)[C@@H]1CCN1c1ccc(-c2cc(F)cc(Nc3ncc(F)c(C4CC4)n3)c2)cn1 [Example 7.160, (2S)-1-(5-{3-[(4-cyclopropyl-5-fluoropyrimidin-2-yl)amino]-5-fluorophenyl}pyridin-2-yl)azetidine-2-carboxylic acid]",< 100
9,"Cc1cc(Nc2ncc(F)c(C3CC3)n2)cc(-c2ccc(N3CC[C@H]3C(=O)O)nc2)c1 [Example 7.161, (2S)-1-(5-{3-[(4-cyclopropyl-5-fluoropyrimidin-2-yl)amino]-5-methylphenyl}pyridin-2-yl)azetidine-2-carboxylic acid]",< 100

# Same assay, conditions: recombinant GST-hSYK, 25 μM ATP, HTRF; read-out: IC50 (inhibition of human Syk activity)
row,Structure (SMILES),IC50 [nM]
1,"Cc1cc(Nc2nccc(C(F)(F)F)n2)cc(-c2ccc(C(C)(O)CO)nc2)c1 (stereo not shown) [Example 9.1, 2-[5-(3-Methyl-5-{[4-(trifluoromethyl)pyrimidin-2-yl]amino}phenyl)pyridin-2-yl]propane-1,2-diol]",17.9
